Experimental data taken from ChEMBL document CHEMBL1155335, “Studies towards topical selective beta2-adrenoceptor agonists with a long duration of action” (Bioorg Med Chem Lett, 2009).
Activity calls are given as the source filed them. The calls are words filed in the database; no cut-off is given here.

Assays:
Homo sapiens = organism: Homo sapiens; test: Selectivity ratio, EC50 for human beta-1 adrenoceptor to EC50 for human beta2 adrenoceptor
[1] = molecular target: Beta-1 adrenergic receptor (Homo sapiens, UniProt P08588)
Description: Agonist activity at human beta-1 adrenoceptor expressed in CHOK1 cell assessed as increase of intracellular cAMP level

[2] = molecular target: Beta-2 adrenergic receptor (Homo sapiens, UniProt P07550)
Description: Agonist activity at human beta2 adrenoceptor expressed in CHOK1 cell assessed as increase of intracellular cAMP level

Cavia porcellus [3] = test: Bronchoprotective activity in guinea pig assessed as inhibition of acetylcholine-induced increase in pulmonary resistance at 10 ug/kg, intratracheally after 5 hrs; assay type: functional; design: scale not given: the % may be the effect or the level left
Cavia porcellus [4] = test: Bronchoprotective activity in guinea pig assessed as inhibition of acetylcholine-induced increase in pulmonary resistance at 3 ug/kg, intratracheally after 5 hrs; assay type: functional, organism-based
Cavia porcellus [5] = test: Toxicity in guinea pig assessed as increase in heart rate at 10 ug/kg, intratracheally after 90 mins; assay type: organism-based; details: in vivo, inhaled_or_intranasal, 0.01 mg/kg, 1.5 h
Cavia porcellus [6] = test: Bronchoprotective activity in intratracheally dosed guinea pig assessed as inhibition of acetylcholine-induced increase in pulmonary resistance after 5 hrs; assay type: functional, organism-based
Cavia porcellus [7] = test: Toxicity in intratracheally dosed guinea pig assessed as increase in heart rate after 10 to 20 mins; assay type: organism-based; details: in vivo, inhaled_or_intranasal
Cavia porcellus [8] = test: Toxicity in guinea pig assessed as increase in heart rate at 3 ug/kg, intratracheally after 90 mins; assay type: organism-based; details: in vivo, inhaled_or_intranasal, 0.003 mg/kg, 1.5 h

Beta-2 adrenergic receptor, sequence (P07550 whole entry): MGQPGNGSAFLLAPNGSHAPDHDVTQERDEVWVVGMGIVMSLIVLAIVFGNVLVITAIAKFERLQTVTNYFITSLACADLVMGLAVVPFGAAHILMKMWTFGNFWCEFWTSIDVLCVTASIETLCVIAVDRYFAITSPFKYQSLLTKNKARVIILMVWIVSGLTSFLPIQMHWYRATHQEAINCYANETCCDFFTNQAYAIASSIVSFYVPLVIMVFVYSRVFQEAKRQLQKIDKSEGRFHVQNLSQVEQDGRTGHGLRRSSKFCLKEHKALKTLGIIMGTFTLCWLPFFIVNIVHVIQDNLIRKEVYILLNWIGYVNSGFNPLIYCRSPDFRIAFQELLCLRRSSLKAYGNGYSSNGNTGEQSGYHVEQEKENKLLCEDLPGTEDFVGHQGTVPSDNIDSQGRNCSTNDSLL
Beta-1 adrenergic receptor, sequence (P08588 whole entry): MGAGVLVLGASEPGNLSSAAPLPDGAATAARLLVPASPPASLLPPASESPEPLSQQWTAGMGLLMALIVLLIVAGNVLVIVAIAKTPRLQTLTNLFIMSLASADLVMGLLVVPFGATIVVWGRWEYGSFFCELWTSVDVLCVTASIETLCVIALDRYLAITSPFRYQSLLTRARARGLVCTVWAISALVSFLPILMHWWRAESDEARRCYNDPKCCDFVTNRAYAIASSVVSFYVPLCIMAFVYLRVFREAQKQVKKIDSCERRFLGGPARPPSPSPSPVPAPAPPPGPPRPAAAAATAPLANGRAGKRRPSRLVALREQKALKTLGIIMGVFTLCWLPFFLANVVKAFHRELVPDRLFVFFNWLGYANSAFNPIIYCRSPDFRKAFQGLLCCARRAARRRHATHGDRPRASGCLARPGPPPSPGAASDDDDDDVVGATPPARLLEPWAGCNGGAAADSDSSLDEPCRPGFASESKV

Compound	Ratio EC50 (Homo sapiens)	EC50 [1] [nM]	EC50 [2] [nM]	Activity (Cavia porcellus [3]) [%]	Activity (Cavia porcellus [4])	Activity (Cavia porcellus [5]) [%]	Activity (Cavia porcellus [6])	Activity (Cavia porcellus [7])	Activity (Cavia porcellus [8])
CC(C)(Cc1ccc(NC(=O)CCCN)cc1)NCC(O)c1ccc(O)c2c1OCC(=O)N2 (centres undefined)	3.1	3.4	1.1						
CC(C)(Cc1ccc(NC(=O)CCCNC(=N)N)cc1)NCC(O)c1ccc(O)c2c1OCC(=O)N2 (centres undefined)	1.8	1.8	1	100	Active	> 10	Dose-dependent effect	Toxic	
CC(C)(Cc1ccc(NC(=O)CCCNC(=N)N)cc1)NCC(O)c1cc(O)cc2c1OCC(=O)N2 (centres undefined)	4.4								
CC(C)(Cc1ccc(NC(=O)CCCNC(=O)C[N+](C)(C)C)cc1)NCC(O)c1ccc(O)c2c1OCC(=O)N2 (centres undefined)	3.5	3.5	1						
CC(C)(Cc1ccc(NC(=O)CCCN)cc1)NCC(O)c1cc(O)cc2c1OCC(=O)N2 (centres undefined)	1.2	11	9						
CC(C)(Cc1ccc(NC(=O)CCCNC(=O)CN)cc1)NCC(O)c1ccc(O)c2c1OCC(=O)N2 (centres undefined)	3.8	4.5	1.2	100	Active	> 10	Dose-dependent effect	Toxic	
CN1CCN(CC(=O)NCCCC(=O)Nc2ccc(CC(C)(C)NCC(O)c3ccc(O)c4c3OCC(=O)N4)cc2)CC1 (centres undefined)	4.8	5.7	1.2						
CC(C)(Cc1ccc(NC(=O)CCCNC(=O)C[N+](C)(C)C)cc1)NCC(O)c1cc(O)cc2c1OCC(=O)N2 (centres undefined)	2.4	28	11.6						
CC(C)(Cc1ccc(NC(=O)CCCNCCCS(=O)(=O)O)cc1)NCC(O)c1ccc(O)c2c1OCC(=O)N2 (centres undefined)	5.5	9.9	1.8				Dose-dependent effect	Toxic	Active
CC(C)(Cc1ccc(NC(=O)CCCNC(=O)C(N)CCCN)cc1)NCC(O)c1ccc(O)c2c1OCC(=O)N2 (centres undefined)	4.4	24	5.4	100	Active	> 10	Dose-dependent effect	Toxic	
CC(C)(Cc1ccc(NC(=O)CCCN=C(N)N)cc1)NCC(O)c1cc(O)cc2c1OCC(=O)N2 (centres undefined)		18	4.1						
CC(C)(Cc1ccc(NC(=O)CCCNC(=O)CCN)cc1)NCC(O)c1ccc(O)c2c1OCC(=O)N2 (centres undefined)	5.1	4.6	0.9						
CN(C)CC(=O)NCCCC(=O)Nc1ccc(CC(C)(C)NCC(O)c2ccc(O)c3c2OCC(=O)N3)cc1 (centres undefined)	10.6	5.3	0.5						
